Assay results: BindingDB's records for patent US20240051936 (Monte Rosa Therapeutics, 2024)

target: Protein cereblon (Homo sapiens, UniProt Q96SW2); assay: Fluorescent Polarization Assay
Description: Compound activity was monitored in a fluorescence polarization (FP) homogeneous assay using 1-[5-({2-[2-(2-{[2-(2,6-dioxopiperidin-3-yl)-1,3-dioxo-2,3-dihydro-1H-isoindol-4-yl]oxy}acetamido)ethoxy]ethyl}carbamoyl)pentyl]-3,3-dimethyl-2-[(1E,3E)-5-[(2E)-1,3,3-trimethyl-5-sulfo-2,3-dihydro-1H-indol-2-ylidene]penta-1,3-dien-1-yl]-3H-indol-1-ium-5-sulfonate as a fluorescent probe. Unless otherwise stated, all reagents were purchased from Sigma Aldrich. Enzymatic reactions were conducted in Perkin-Elmer Black 384 well ProxiPlate Plus (catalogue no. 6008269) in 10 sL total volume. Full length wild-type cereblon CRBN (80.0 nM, 10 sL) was incubated in assay buffer containing 20 mM HEPES (pH 8.0), […], 0.5 mM TCEP and 0.05% Tween 20 in the presence or absence of compound (300 nL). Inhibitors were stored as 10 mM DMSO stocks in an inert environment (low humidity, dark, low oxygen, room temperature) using the Storage Pod System. Compounds and DMSO were dispensed using the Echo E5XX (Labcyte Inc. USA) to give concentrations from 300 to 0.937 or 3000 to 9.3 nM in a 12 data point curve. […] Following incubation at room temperature for 30 min, the assay was initiated by dispensing the probe to a final concentration of 5 nM (2.5 nL of a 20 μM stock) using the Echo E5XX. FP was measured after a period of 12 hours using a Pherastar plate reader (BMG Labtech, Germany) exciting at 590 nm and measuring the amount of parallel and perpendicular light at 675 nm. The FP signal was subsequently normalized to the no-compound control (i.e., DMSO). Analysis and IC50 values were derived using Dotmatics (Dotmatics UK) software.

Chain of Protein cereblon (Q96SW2 whole entry): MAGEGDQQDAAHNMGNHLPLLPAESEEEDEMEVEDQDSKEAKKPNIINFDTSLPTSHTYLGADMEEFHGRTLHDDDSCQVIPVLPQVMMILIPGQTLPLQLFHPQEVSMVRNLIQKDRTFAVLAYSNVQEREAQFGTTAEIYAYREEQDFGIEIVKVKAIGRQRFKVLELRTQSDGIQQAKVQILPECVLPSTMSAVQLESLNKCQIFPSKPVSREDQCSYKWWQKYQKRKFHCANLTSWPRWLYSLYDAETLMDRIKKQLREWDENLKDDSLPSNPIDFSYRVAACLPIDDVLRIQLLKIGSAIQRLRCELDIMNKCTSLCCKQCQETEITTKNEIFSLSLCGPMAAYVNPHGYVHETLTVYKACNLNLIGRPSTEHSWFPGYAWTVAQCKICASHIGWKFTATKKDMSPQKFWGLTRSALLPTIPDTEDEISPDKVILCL

IC50 | Structure (SMILES)
> 1.9 µM | CC(C)(C)c1ccc(NC(=O)OCc2cc(F)c3c(c2)C(=O)N(C2CCC(=O)NC2=O)C3)cc1 (centres undefined) [US20240051936, Compound 10]
> 1.9 µM | O=C1CCC(N2Cc3c(F)cc(COC(=O)Nc4ccc(F)c(OC(F)(F)F)c4)cc3C2=O)C(=O)N1 (centres undefined) [US20240051936, Compound 14]
> 1.9 µM | O=C1CCC(N2Cc3c(F)cc(COC(=O)Nc4ccc(C5CCC5)cc4)cc3C2=O)C(=O)N1 (centres undefined) [US20240051936, Compound 22]
> 1.9 µM | O=C1CCC(N2Cc3c(F)cc(COC(=O)Nc4ccc(-c5ccccc5F)c(F)c4)cc3C2=O)C(=O)N1 (centres undefined) [US20240051936, Compound 29]
> 1.9 µM | O=C1CCC(N2Cc3c(F)cc(COC(=O)Nc4cc(F)c(-c5ccccc5)c(F)c4)cc3C2=O)C(=O)N1 (centres undefined) [US20240051936, Compound 30]
> 1.9 µM | O=C1CCC(N2Cc3c(F)cc(COC(=O)Nc4ccc(F)c(Cl)c4)cc3C2=O)C(=O)N1 (centres undefined) [US20240051936, Compound 32]
> 1.9 µM | O=C1CCC(N2Cc3c(F)cc(COC(=O)Nc4cc(F)cc(Cl)c4)cc3C2=O)C(=O)N1 (centres undefined) [US20240051936, Compound 33]
> 1.9 µM | COc1c(COC(=O)Nc2ccc(C)c(Cl)c2)ccc2c1C(=O)N(C1CCC(=O)NC1=O)C2 (centres undefined) [US20240051936, Compound 70]

Structure (SMILES) | IC50
O=C1CCC(N2Cc3c(F)cc(COC(=O)Nc4cc(F)c(F)c(Cl)c4)cc3C2=O)C(=O)N1 (centres undefined) [US20240051936, Compound 61] | > 1.9 µM
